pKd: −log10 of the molar value. Where “and” joins values, the source holds several entries; their conditions need not be identical. Identical values can stand only once. Entries after “also recorded” stand apart in the source; their conditions may differ.
How the values were obtained:
[1] = test system: Aptamer 21-E; test: SHAPE-MaP on Aptamer 21-E with and without ligand; settings: suggesting weak binding
Method: The SHAPE-MaP approach exploits conditions that cause reverse transcriptase to misread SHAPE-modified nucleotides and incorporate a nucleotide non-complementary to the original sequence into the newly synthesized cDNA. The positions and relative frequencies of SHAPE adducts are recorded as mutations in the cDNA primary sequence. In a SHAPE-MaP experiment, the RNA is treated with a SHAPE reagent or treated with solvent only, and the RNA is […]. RNA from each experimental condition is reverse-transcribed, and the resulting cDNAs are then sequenced. […]
SHAPE-MaP can be performed and analyzed according to detailed published methods (Martin et al., RNA 2012; 18:77-87; McGuinness et al., J. Am. Chem. Soc. 2012; 134:6617-6624; Siegfried et al., Nature Methods 2014; 11:959-965; Lavender et al., PLoS Comput. Biol. 2015; 11(5)e1004230; McGuinness et al., Proc. Natl. Acad. Sci. USA 2015; 112:2425-2430). The SHAPE-MaP sequence data can be analyzed using ShapeFinder (Vasa et al., RNA 2008; 14:1979-1990) or ShapeMapper (Siegfried et al., Nature Methods 2014; 11:959-965) or other software. […]
For all SHAPEware analysis, reads were adapter-trimmed aligned as previously described (https://bitbucket.org/arrakistx/shapeware/src) using Trimmomatic (http://dx.doi.org/10.1093/bioinformatics/btu170) and bwa-mem (https://arxiv.org/abs/1303.3997), respectively. […]

[2] = target: Aptamer 21; test: Surface plasmon resonance (SPR) binding to Aptamer 21; settings: listed as ARK-139
Text: Surface plasmon resonance (SPR) may be used to screen ligands and hook and click constructs for binding to a target RNA of interest. SPR is especially useful for monitoring biomolecular interactions in real time. Typically, target species and unrelated control are immobilized to a sensor chip, then analytes (compounds/fragments) are flowed over the surface. Binding of the compound to target species results in increase of SPR signal (association phase). Washing away bound compound with buffer results in a decrease of SPR signal (dissociation phase). Fitting of sensorgrams recorded at different compound concentrations is performed to an appropriate interaction model. The method allows extraction of kinetic parameters (ka, kd→KD). Requirements/limitations include that the ka/kd values be in reasonable ranges; and the target size must not be too large (<100 kDa). It is an excellent method to screen fragments and profile or validate hits. BC4000 may be used for primary screening (up to 4,000 data pts/week). Biacore T200 is suitable for hit profiling and validation.
In the PEARL-seq context, SPR allows monitoring binding of “hooks” to DNA/RNA aptamers. The target species is immobilized to sensor chip, analytes (i.e. hooks) are flowed over surface (association phase), DNA/RNA aptamer is flowed over surface (plateau phase), competitor compound is washed over surface (dissociation phase), thus yielding binding data.
Experiments were performed on a MASS-2 (Sierra Sensors) at 25° C. A high capacity amine chip was equilibrated with PBS. The chip was conditioned with alternating injections of 10 mM HCl and 10 mM NaOH in 1 M NaCl. The carboxymethylated dextran of the surface of the amine chip was activated for 7 minutes at a flow rate of 10 μL/min using a 1:1 volume ratio of 0.4 M 1-ethyl-3-(3-dimethylaminopropyl) carbodiimide (Sierra) and 0.1 M N-hydroxysuccinimide (Sierra). Neutravidin (70 μg/mL, Thermofisher) was injected over the activated surface for 10 minutes at a flow rate of 10 μl/min. Excess activated groups were blocked by an injection of 1 M ethanolamine, pH 8.5 (Sierra) for 7 minutes at a flow rate of 10 μl/min. A final injection of 10 mM NaOH in 1 M NaCl for 7 minutes at 10 μl/min was used to remove any unbound material to the chip. The immobilization reaction typically yielded approximately 12,000 resonance units (RU) of neutravidin. At least one spot in a channel was not injected with RNA and was used as a background control. Unrelated RNA was also used as a background control.
A 1 μM sample of biotin-aptamer 21 was prepared in RNAse free water, heated to 95° C. for 3 minutes, cooled on ice for 4 minutes, diluted with an equal volume 2× folding buffer (40 mM Tris-HCl, pH 8.0, 6 mM MgCl2, 200 mM KCl), and incubated at 37° C. for 30 minutes. The final concentration of RNA was 0.5 μM.
The MASS-2 was primed 2 times with 20 mM Tris-HCl, pH 8.0, 3 mM MgCl2, 100 mM KCl (Capture Buffer). RNA was injected over the neutravidin surface for 7 minutes at a flow rate of 10 μl/min. Capture levels typically reached approximately 3500-4500 of resonance units of aptamer 21.
Compounds were diluted 2-fold in 100% DMSO at a starting concentration of 500 μM.
The MASS-2 was primed 2 times with 20 mM Tris-HCl, pH 8.0, 3 mM MgCl2, 100 mM KCl, 1% DMSO (running buffer). Prior to testing compounds 3 injections of running buffer were used to equilibrate the sensor surface. […]

With `COC(=O)C1=C(COCc2cn(CCOCCOCCO)nn2)NC(c2ccncc2)=NC1c1ccc(F)cc1Cl` (racemic) [I-1] the “alteration in SHAPE reactivity of Aptamer 21-E in presence of ligand” value [1] was “almost no alteration”, the pKd ([2]; binding to Aptamer 21, read-out: calculated KD by SPR) was 6.25 and 6.38 and the “binding to Aptamer 21 by SPR” value [2] was “binds; also recorded: SPR-active”.
